Reference: US20210378244A1, “VIRUCIDAL COMPOSITIONS AND METHODS” (InExtreme Enterprises Pty Ltd, priority 2020, published 2021)

Test system: Gloeocapsa magma
Assay: Biological testing: visual rating of Gloeocapsa magma growth on inoculated plywood panels dipped in test solutions
Type: cell-based
Conditions: for effect on biocidal activity when combined with DDAC and/or BAC (QAC): QAC or QAC mixture and additive at concentrations as in the tables, data not shown for urea and urea dihydrochloride
Procedure: Test Solutions and Tests: To prepare the various QAC solutions, the following materials where used: Stepan BTC 1010 (50% aqueous solution of didecyl dimethyl ammonium chloride) and Stepan BTC 12 Special (50% aqueous solution of alkyl dimethyl benzyl ammonium chloride). Urea Monohydrochloride was prepared by reacting solid urea with hydrochloric acid 20BE (32% aqueous solution) at a ratio of one Mol active HCl to one Mol urea. Both Urea and HCl 20 BE are readily commercially available.
Biological testing: Gloeocapsa magma was chosen as a bacterial species that served as a model system for corona virus in terms of surface adhesion and membrane characteristics. The bacteria were cultured in a petri dish and inoculated on plywood panels (10×10 cm). […] The panels were dipped in the testing solutions for 10 seconds and left to dry. 24 hours post immersion each panel was examined for presence of green (living bacteria). This was done visually and rated from 0 (no growth)) to 5 (full growth coverage).

| Structure (SMILES) | effect on biocidal activity when combined with DDAC and/or BAC (QAC) | biocidal effect (0.9% of DDAC in combination with the urea or other nitrogenous base-hydrochloride in water) |
| --- | --- | --- |
| NC(N)=O [urea] | no impact in biocidal activity | – |
| Cl.Cl.NC(N)=O [urea dihydrochloride] | no impact in biocidal activity | – |
| Cl.NC(N)=O [UMC, Urea Monohydrochloride] | synergistic effect | – |
| CCCCCCCCCC[N+](C)(C)CCCCCCCCCC.[Cl-] [DDAC, didecyl dimethyl ammonium chloride] | – | same biocidal effect as 3% DDAC alone in water |
